According to the NIST ThermoML archive (doi:10.1021/je020131a):

Assay: xn = mol fraction of the nth substance listed
Conditions: 101.3 kPa, Liquid, Falling or rolling sphere viscometry

C1CCCCC1 [cyclohexane] + CCOC(=O)OCC
x2 = 0
Conditions | viscosity [mPa·s]
293.15 K | 0.976
298.15 K | 0.894
303.15 K | 0.813
313.15 K | 0.697

C1CCCCC1 [cyclohexane] + COC(=O)OC
x2 = 0
Conditions | viscosity [mPa·s]
293.15 K | 0.976
298.15 K | 0.894
303.15 K | 0.813
313.15 K | 0.697

CCOC(=O)OCC [diethyl carbonate] + C1CCCCC1
Conditions | viscosity [mPa·s]
293.15 K, x1 = 0.0501 | 0.906
293.15 K, x1 = 0.0992 | 0.85
293.15 K, x1 = 0.1969 | 0.78
293.15 K, x1 = 0.2923 | 0.741
293.15 K, x1 = 0.4023 | 0.72
293.15 K, x1 = 0.502 | 0.712
293.15 K, x1 = 0.5984 | 0.718
293.15 K, x1 = 0.6977 | 0.728
293.15 K, x1 = 0.808 | 0.742
293.15 K, x1 = 0.9037 | 0.761
293.15 K, x1 = 0.9511 | 0.776
293.15 K, x1 = 1 | 0.795
298.15 K, x1 = 0.0531 | 0.832
298.15 K, x1 = 0.094 | 0.792
298.15 K, x1 = 0.1931 | 0.725
298.15 K, x1 = 0.2865 | 0.691
298.15 K, x1 = 0.3821 | 0.676
298.15 K, x1 = 0.4802 | 0.674
298.15 K, x1 = 0.6454 | 0.685
298.15 K, x1 = 0.6801 | 0.689
298.15 K, x1 = 0.7828 | 0.701
298.15 K, x1 = 0.8852 | 0.719
298.15 K, x1 = 0.9177 | 0.726
298.15 K, x1 = 1 | 0.749
303.15 K, x1 = 0.0497 | 0.76
303.15 K, x1 = 0.1018 | 0.717
303.15 K, x1 = 0.1958 | 0.665
303.15 K, x1 = 0.293 | 0.637
303.15 K, x1 = 0.3922 | 0.628
303.15 K, x1 = 0.4767 | 0.626
303.15 K, x1 = 0.5943 | 0.635
303.15 K, x1 = 0.6778 | 0.643
303.15 K, x1 = 0.7897 | 0.657
303.15 K, x1 = 0.8649 | 0.671
303.15 K, x1 = 0.94 | 0.684
303.15 K, x1 = 1 | 0.699
313.15 K, x1 = 0.0511 | 0.659
313.15 K, x1 = 0.0983 | 0.632
313.15 K, x1 = 0.2003 | 0.594
313.15 K, x1 = 0.3002 | 0.572
313.15 K, x1 = 0.3963 | 0.56
313.15 K, x1 = 0.4953 | 0.563
313.15 K, x1 = 0.5914 | 0.568
313.15 K, x1 = 0.7001 | 0.576
313.15 K, x1 = 0.8098 | 0.589
313.15 K, x1 = 0.9014 | 0.603
313.15 K, x1 = 0.9494 | 0.613
313.15 K, x1 = 1 | 0.623
